PubChem BioAssay AID1918958 (Molecular Pharmacology Branch, DTP, NCI, 2023)

Tested on: NCI-H196 complex spheroid viability
Experiment: Anticancer human tumor NCI-H196 cell line growth inhibition [LSD1];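 also: spheroids exposed to agents for 7 days before readout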;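 as to viability, T/C: 100% = DMSO vehicle control viability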
Details: for IC50: curve of first compound; for viability, T/C: stronger effect = lower value
From the text: Multicellular complex tumor spheroid response to LSD1 Inhibitor Iadademstat in combination with a variety of drugs and investigational agents in selected tumor cell lines
The current study was undertaken to assess response to LSD1 inhibitors in combination with standard-of-care drugs and investigational agents in solid tumor complex spheroid models as well as in the K-562 leukemia. Complex spheroids include a stromal component modeled by human endothelial cells (HUVEC) and fibroblasts modeled by human mesenchymal stem cells (MSCs). The concentration ranges selected for each drug and investigational agent were based upon clinically achievable concentrations if the clinical Cmax of the agent was known.
Compounds. The drugs and investigational agents used in this study are listed on Table 1. All of the agents used, including staurosporine (NSC755774) and gemcitabine (NSC613327), were obtained from the Developmental Therapeutics Program, NCI. FDA-approved anticancer drugs are available from the NCI at http://dtp.nci.nih.gov/branches/dscb/oncology_drugset_explanation.html. Drugs and investigational agents were >95% pure by proton nuclear magnetic resonance (NMR) and liquid chromatography/mass spectrometry (LC/MS). Stock solutions were prepared at 400x in DMSO, stored at -70 degrees C, and diluted in fresh medium prior to their use. The final concentration of DMSO in cell culture wells never exceeded 0.25% (v/v). The FDA-approved anticancer drug set is available from the Developmental Therapeutics Program at https://dtp.cancer.gov/organization/dscb/obtaining/available_plates.htm. All drugs and investigational agents were tested over a range starting from a high concentration at or near the clinical Cmax and decreasing in half-log increments. If the clinical Cmax for an agent had not been determined, the highest concentration tested was 10 microM.
Cell Lines. The patient-derived cancer cell (PDC) lines: 292921-168-R-J2-PDC, K24384-001-R-PDC, and 521955-158-R2-J5-PDC pancreatic carcinomas, 556581-035-R-J1 ovarian carcinoma, 324938-238-R-J1-PDC, 855422-203-R-J1-PDC and 883617-216-R-J1-PDC urothelial bladder carcinomas, 743489-274-T-PDC renal cell carcinoma, 138582-R-J1 Merkel cell tumor, K60290-347-R-J1 and K57222-313-R-J1-PDC glioblastomas, 653999-131-R-J2-PDC, LG0703-F948-PDC, and 349418-098-R-PDC non-small cell lung carcinomas, 885512-296-R-J2-PDC, 171881-019-R-J1-PDC breast carcinomas and 186277-243-T-J2-PDC and 233499-124-R-J2-PDC colon carcinomas were obtained from the NCI Patient-Derived Models Repository (PDMR, https://pdmr.cancer.gov). The established cell lines NCI/ADR-RES (RRID:CVCL_14520 and OVCAR-5 (RRID:CVCL_1628) ovarian carcinomas, 786-O (RRID:CVCL_1051) and A498 (RRID:CVCL_A498) renal cell carcinoma, NCI-H211 (ATCC, cat. CRL-5824; RRID:CVCL_1529), NCI-H196 (ATCC, cat. CRL-5823, RRID:CVCL_1509), SW 1271 (ATCC, cat. CRL-2177, RRID:CVCL_1716) and NCI-H1876 (ATCC, cat. CRL-5902, RRID:CVCL_1503) small cell lung carcinomas, MDA-MB-231 (RRID:CVCL_0062) and MDA-MB-468 (RRID:CVCL_0419)breast carcinomas (10-12). Pooled donor human umbilical vein endothelial cells (HUVEC, Lonza, cat. CC-2519) and human mesenchymal stem cells (hMSC, Lonza, cat. PT-2501) were purchased from Lonza (Walkersville, MD).
Cell Culture. All cells were maintained in an incubator at 37 degrees C and 5% CO2 with 95% humidity. The PDC lines were cultured according to standard operating procedures established by the NCI PDMR (https://pdmr.cancer.gov). Briefly all PDCs were thawed and cultured in Matrigel-coated flasks prepared with a working solution of 1X Ham's F-12 nutrient mix, without supplementation (Invitrogen, Waltham, MA, cat. 11765054), 100 U/mL penicillin-streptomycin (Invitrogen, cat. 15140122), and 2.5% Matrigel (Corning Inc., Corning, NY, cat. 354248) for the first three passages. […]

`CC[C@@]1(O)C(=O)OCc2c1cc1n(c2=O)Cc2cc3c(CN(C)C)c(O)ccc3nc2-1` + NC1CC1c1ccc(-c2cccc(O)c2)cc1 was tested. Which IC50 (second compound 0.1 µM) did it give?
Its IC50 is greater than 100 nM.

And the IC50 (second compound 0.316 µM)?
Its IC50 is greater than 100 nM.

What about the IC50 (second compound 1 µM) of the same compound?
The IC50 was greater than 100 nM.

And the IC50 (second compound 3.16 µM)?
Its IC50 is greater than 100 nM.

And the IC50 (second compound 10 µM)?
Its IC50 is greater than 100 nM.

What about the viability, T/C (second compound 0.1 µM, first compound 0.000316 µM) of the same compound?
Its viability, T/C is 95.1%.

What about the viability, T/C (second compound 0.1 µM, first compound 0.001 µM) of the same compound?
The viability, T/C was 101%.

What about the viability, T/C (second compound 0.1 µM, first compound 0.00316 µM) of the same compound?
The viability, T/C was 115%.

And the viability, T/C (second compound 0.1 µM, first compound 0.01 µM)?
Its viability, T/C is 105%.

And the viability, T/C (second compound 0.1 µM, first compound 0.0316 µM)?
Its viability, T/C is 95.7%.

And the viability, T/C (second compound 0.1 µM, first compound 0.1 µM)?
The viability, T/C was 99.5%.

And the viability, T/C (second compound 0.316 µM, first compound 0.000316 µM)?
The viability, T/C was 97.3%.

And the viability, T/C (second compound 0.316 µM, first compound 0.001 µM)?
The viability, T/C was 104%.

And the viability, T/C (second compound 0.316 µM, first compound 0.00316 µM)?
The viability, T/C was 102%.

What about the viability, T/C (second compound 0.316 µM, first compound 0.01 µM) of the same compound?
The viability, T/C was 109%.

What about the viability, T/C (second compound 0.316 µM, first compound 0.0316 µM) of the same compound?
Its viability, T/C is 109%.

What about the viability, T/C (second compound 0.316 µM, first compound 0.1 µM) of the same compound?
Its viability, T/C is 95.9%.

What about the viability, T/C (second compound 1 µM, first compound 0.000316 µM) of the same compound?
Its viability, T/C is 92.4%.

What about the viability, T/C (second compound 1 µM, first compound 0.001 µM) of the same compound?
Its viability, T/C is 93.8%.

And the viability, T/C (second compound 1 µM, first compound 0.00316 µM)?
Its viability, T/C is 104%.

What about the viability, T/C (second compound 1 µM, first compound 0.01 µM) of the same compound?
Its viability, T/C is 100%.

What about the viability, T/C (second compound 1 µM, first compound 0.0316 µM) of the same compound?
Its viability, T/C is 103%.

What about the viability, T/C (second compound 1 µM, first compound 0.1 µM) of the same compound?
The viability, T/C was 94.8%.

And the viability, T/C (second compound 3.16 µM, first compound 0.000316 µM)?
The viability, T/C was 90.7%.

What about the viability, T/C (second compound 3.16 µM, first compound 0.001 µM) of the same compound?
The viability, T/C was 95.3%.

And the viability, T/C (second compound 3.16 µM, first compound 0.00316 µM)?
Its viability, T/C is 92.2%.

What about the viability, T/C (second compound 3.16 µM, first compound 0.01 µM) of the same compound?
Its viability, T/C is 101%.

And the viability, T/C (second compound 3.16 µM, first compound 0.0316 µM)?
The viability, T/C was 91%.

And the viability, T/C (second compound 3.16 µM, first compound 0.1 µM)?
Its viability, T/C is 82.6%.

And the viability, T/C (second compound 10 µM, first compound 0.000316 µM)?
Its viability, T/C is 88.8%.

What about the viability, T/C (second compound 10 µM, first compound 0.001 µM) of the same compound?
Its viability, T/C is 90.4%.

And the viability, T/C (second compound 10 µM, first compound 0.00316 µM)?
The viability, T/C was 102%.

What about the viability, T/C (second compound 10 µM, first compound 0.01 µM) of the same compound?
The viability, T/C was 115%.

And the viability, T/C (second compound 10 µM, first compound 0.0316 µM)?
Its viability, T/C is 98.2%.

And the viability, T/C (second compound 10 µM, first compound 0.1 µM)?
Its viability, T/C is 78.2%.

For `COc1cc(C2c3cc4c(cc3C(OC3OC5COC(C)OC5C(O)C3O)C3COC(=O)C23)OCO4)cc(OC)c1O` (stereo not given) + NC1CC1c1ccc(-c2cccc(O)c2)cc1, which IC50 (second compound 0.1 µM) is on record?
The IC50 was greater than 3000 nM.

And the IC50 (second compound 0.316 µM)?
The IC50 was greater than 3000 nM.

And the IC50 (second compound 1 µM)?
Its IC50 is greater than 3000 nM.

What about the IC50 (second compound 3.16 µM) of the same compound?
Its IC50 is greater than 3000 nM.

And the IC50 (second compound 10 µM)?
Its IC50 is greater than 3000 nM.

What about the viability, T/C (second compound 0.1 µM, first compound 0.00949 µM) of the same compound?
Its viability, T/C is 95.2%.

What about the viability, T/C (second compound 0.1 µM, first compound 0.03 µM) of the same compound?
Its viability, T/C is 97%.

And the viability, T/C (second compound 0.1 µM, first compound 0.0949 µM)?
The viability, T/C was 109%.

And the viability, T/C (second compound 0.1 µM, first compound 0.3 µM)?
Its viability, T/C is 101%.

What about the viability, T/C (second compound 0.1 µM, first compound 0.949 µM) of the same compound?
The viability, T/C was 85.1%.

And the viability, T/C (second compound 0.1 µM, first compound 3 µM)?
The viability, T/C was 69.1%.

What about the viability, T/C (second compound 0.316 µM, first compound 0.00949 µM) of the same compound?
The viability, T/C was 98.5%.

And the viability, T/C (second compound 0.316 µM, first compound 0.03 µM)?
Its viability, T/C is 100%.

What about the viability, T/C (second compound 0.316 µM, first compound 0.0949 µM) of the same compound?
The viability, T/C was 105%.

And the viability, T/C (second compound 0.316 µM, first compound 0.3 µM)?
Its viability, T/C is 102%.

And the viability, T/C (second compound 0.316 µM, first compound 0.949 µM)?
The viability, T/C was 88.2%.

And the viability, T/C (second compound 0.316 µM, first compound 3 µM)?
The viability, T/C was 65.1%.

And the viability, T/C (second compound 1 µM, first compound 0.00949 µM)?
The viability, T/C was 90.9%.

What about the viability, T/C (second compound 1 µM, first compound 0.03 µM) of the same compound?
The viability, T/C was 104%.

And the viability, T/C (second compound 1 µM, first compound 0.0949 µM)?
The viability, T/C was 117%.

What about the viability, T/C (second compound 1 µM, first compound 0.3 µM) of the same compound?
Its viability, T/C is 121%.

And the viability, T/C (second compound 1 µM, first compound 0.949 µM)?
The viability, T/C was 84.1%.

What about the viability, T/C (second compound 1 µM, first compound 3 µM) of the same compound?
The viability, T/C was 61.8%.

And the viability, T/C (second compound 3.16 µM, first compound 0.00949 µM)?
The viability, T/C was 92.8%.

And the viability, T/C (second compound 3.16 µM, first compound 0.03 µM)?
The viability, T/C was 92.4%.

And the viability, T/C (second compound 3.16 µM, first compound 0.0949 µM)?
The viability, T/C was 104%.

What about the viability, T/C (second compound 3.16 µM, first compound 0.3 µM) of the same compound?
The viability, T/C was 91.4%.

And the viability, T/C (second compound 3.16 µM, first compound 0.949 µM)?
Its viability, T/C is 76.9%.

What about the viability, T/C (second compound 3.16 µM, first compound 3 µM) of the same compound?
Its viability, T/C is 53.7%.

What about the viability, T/C (second compound 10 µM, first compound 0.00949 µM) of the same compound?
The viability, T/C was 90%.

What about the viability, T/C (second compound 10 µM, first compound 0.03 µM) of the same compound?
Its viability, T/C is 101%.

And the viability, T/C (second compound 10 µM, first compound 0.0949 µM)?
Its viability, T/C is 102%.

And the viability, T/C (second compound 10 µM, first compound 0.3 µM)?
The viability, T/C was 90.8%.

And the viability, T/C (second compound 10 µM, first compound 0.949 µM)?
Its viability, T/C is 78.5%.

And the viability, T/C (second compound 10 µM, first compound 3 µM)?
Its viability, T/C is 59.9%.
